{"source": "patent US11400085B2", "about": "“Method for preparing pharmaceutical composition for preventing or treating cognitive impairment-related disease and pharmaceutical composition for preventing or treating cognitive impairment-related disease prepared by the same” (priority 2018, dated 2022)", "assay": "Comparison of blood concentrations of donepezil after injection or oral administration", "assay_type": "in vivo", "conditions": "beagle dog, orally administered"}
{"substance": "donepezil", "values": [{"measurement": "blood concentration duration", "result": "very short for about one day"}]}
